Experimental findings from patent publication US20260248969A1, “PEPTIDE MULTIMER PRODUCTS AND METHODS” (REGENTS OF THE UNIVERSITY OF MICHIGAN, priority 2023, published 2026) are described below.

For series [1] the following is noted: mouse, in vivo, iv.
Description: C) Serum stability of WKG*-IRDye800 (200 μM in 200 μL of PBS) in mice (n=5) was measured following intravenous injection. Serum was collected at various time points from 0-24 hours post-injection.
The optimized WKG* monomer labeled with IRDye800 was incubated in serum to determine half-life T1/2. Stability in mouse serum over time was measured using analytical RP-HPLC. The relative concentration was calculated from the area-under-the-peak, and the intensities were fit to a first order kinetic model, and the serum half-life T1/2 was determined.
In series [2] the test system is CD44. Briefly: Apparent dissociation constant by flow cytometry on SK-Hep1 cells. Particulars: 0-200 nM, R^2=0.99. The class given is binding, human.
Description: The equilibrium dissociation constant kd=1/ka was calculated by performing using a least square fit of the data to the non-linear equation I=(I0+Imaxka[X])/(I0+ka[X]). I0 and Imax are the initial and maximum fluorescence intensities, corresponding to no peptide and at saturation, respectively, and [X] represents the concentration of the bound peptide. Results are the mean values from 3 independent experiments.
The apparent dissociation constant (kd) of the IRDye800-labeled WKG* peptide monomer was measured to provide an estimate of binding affinity. The IRDye800-labeled monomer was incubated with human HCC cells over a range of concentrations. Fluorescence intensities were measured with flow cytometry. WKG*-IRDye800 was incubated with SK-Hep1 cells over concentrations ranging from 0-200 nM, and the fluorescence intensity was measured with flow cytometry.
The test system of series [3] is CD44. Briefly: Co-localization of peptide monomer and anti-CD44-AF488 binding to SK-Hep1 cells. The settings on record: SK-Hep1 human HCC cells. On the procedure:
Specific binding of the optimized IRDye800-labeled […] monomer peptide was substantiated using a co-localization of binding to known antibodies. Human Hep3B, HepG2, and Sk-Hep1 HCC cells that overexpress early-stage HCC targets were used. A Pearson's correlation coefficient ρ was calculated from fluorescence intensities on merged images. Measurements were made from n=10 cells chosen randomly from 3 slides. Data for CD44 is shown in FIG. 4A, and similar data was obtained for GPC3 and EpCAM. As shown in the figure, binding by WKG*-IRDye800 and anti-CD44-AF488 to the surface (arrows) of Sk-Hep1 cells co-localized with a correlation of p=0.81 measured on the merged image.

Series [4] concerns orthotopic HCC PDX tumors. Briefly: In vivo whole body NIR fluorescence imaging of orthotopic HCC PDX tumors. More on the design: species or system mouse. The settings on record: P<1×10^−4 by paired t-test. On the procedure:
(§1) In vivo imaging was performed to assess HCC tumor uptake, biodistribution, and clearance of the optimized multimer. […] The target-to-background (T/B) ratio for the multimer was ~1.8-fold greater than that for monomer and free Gd-DOTA from the same tumor in n=3 animals. The target region was segmented using the Chan-Vese algorithm. The background region was defined by dilating the target region. Clearance of the MR signal occurred after ~4 hours post-injection. Data from whole body NIR fluorescence images collected in vivo from the orthotopic HCC tumor following intravenous injection of the lead candidate EpCAM target and control peptides is shown in FIG. 6C. […] For the differences and variances shown in FIG. 60, the power is >95% to obtain P<0.01 for target versus control using n=8 mice per group.

Series [5] relates to orthotopic HCC PDX tumors. The series can be described thus: In vivo MR imaging of tumor uptake, orthotopic HCC PDX model. More on the design: species or system mouse. Particulars: peak uptake 0.5 hours post-injection, same tumor in n=3 mice. Here is the method:
as §1
In vivo tumor uptake of the peptide multimer was evaluated in an orthotopic HCC PDX mouse model using T1-weighted MR images. The Gd-DOTA labeled peptide multimer and peptide monomers specific for GPC3, CD44, and EpCAM were intravenously injected at a concentration of 300 μM in 200 μL of PBS via the tail vein of mice bearing orthotopic PDX tumors, FIG. 13A-E. Gd-DOTA (300 μM in 200 μL PBS) was also intravenously injected as a control. T1-weighted MR images were acquired using a 7T horizontal bore small animal magnet (SGRAD 205/120/HD/S, Agilent Technologies). […]

The target of series [6] is T1, Epithelial cell adhesion molecule (EpCAM) (human, UniProt P16422 24-314).
T1 construct: whole, on cells; Endogenous target on human HCC cells and tissues
T1 sequence (looked up): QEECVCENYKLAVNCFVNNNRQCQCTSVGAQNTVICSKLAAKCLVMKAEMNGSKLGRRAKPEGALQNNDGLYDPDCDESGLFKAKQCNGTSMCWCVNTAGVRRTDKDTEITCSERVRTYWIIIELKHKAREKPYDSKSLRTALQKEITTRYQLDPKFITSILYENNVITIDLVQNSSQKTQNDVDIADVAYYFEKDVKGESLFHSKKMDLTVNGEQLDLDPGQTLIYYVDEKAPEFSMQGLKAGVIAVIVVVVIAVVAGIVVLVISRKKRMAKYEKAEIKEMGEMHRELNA
Briefly: fluorescence microscopy, 5 uM on CCA-156 cells. On the procedure:
(§2) Approximately 10³ CCA-156 cells were grown on the cover glass in a 24-well plate to ~90% confluence. The cells were washed with PBS twice and incubated with 5 μM of either Cy5.5-labeled peptide multimer or peptide monomer for 5 min on ice. The cells were then washed with PBS for 3X, fixed with 4% paraformaldehyde (PFA) in PBS for 15 min, washed with PBS for twice, then mounted on glass slides with ProLong Gold reagent containing DAPI (Invitrogen).

The target in series [7] is T2, CD44 (cluster of differentiation 44) (human, UniProt P16070 21-742).
T2 construct: whole, on cells; Endogenous target on human HCC cells and tissues; no recombinant protein was used
Briefly: flow cytometry, labeled peptide 0-200 nM on SK-Hep1 human HCC cells; apparent dissociation constant. On the procedure: A) WKG*-IRDye800 and anti-CD44-AF488 bind intensely to the surface (arrows) of SK-Hep1 human HCC cells. A Pearson's correlation coefficient of r=0.81 was measured from the merged image. […] B) An apparent dissociation constant of kd=43 nM, R²=0.99, was measured for WKG*-IRDye800 binding to SK-Hep1 cells. The equilibrium dissociation constant kd=1/kₐ was calculated by performing using a least square fit of the data to the non-linear equation […]. I₀ and Iₘₐₓ are the initial and maximum fluorescence intensities, corresponding to no peptide and at saturation, respectively, and [X] represents the concentration of the bound peptide. Results are the mean values from 3 independent experiments. C) Serum stability of WKG*-IRDye800 (200 μM in 200 μL of PBS) in mice (n=5) was measured following intravenous injection. […] The fluorescence intensity I(t) was measured and fit to a first-order kinetics model I(t)=Iₒ+A×exp(−Bt), and a serum half-life of T_{1/2}=5.1 hours was calculated.
The apparent dissociation constant (kd) of the IRDye800-labeled WKG* peptide monomer was measured to provide an estimate of binding affinity. […] Fluorescence intensities were measured with flow cytometry. WKG*-IRDye800 was incubated with SK-Hep1 cells over concentrations ranging from 0-200 nM, and the fluorescence intensity was measured with flow cytometry. […]
For orientation: In flow cytometry, cells or beads pass a laser one at a time.

Series [8] addresses T2, CD44 (cluster of differentiation 44). Briefly: quantified fluorescence on CCA-156 cells, 5 uM; multimer signal comes from cells that carry GPC3, CD44 and EpCAM. On the procedure:
as §2

Series [9] concerns the target T3, Glypican-3 (GPC3) (human, UniProt P51654 25-554).
T3 construct: whole, on cells; Endogenous target on human HCC cells and tissues
The description is as above. Here is the method: as §2

In series [10] the target is T1, Epithelial cell adhesion molecule …. Described as above. Here is the method:
as §2

Residues, ends and D or L forms follow the SMILES beside them. No end group written: not given here. *: point of attachment. IRDye800CW = CC1(C)C(/C=C/C2=C(Oc3ccc(S(=O)(=O)O)cc3)C(=C/C=C3/N(CCCCS(=O)(=O)O)c4ccc(S(=O)(=O)O)cc4C3(C)C)/CCC2)=[N+](CCCCCC(=O)*)c2ccc(S(=O)(=O)[O-])cc21

T2 sequence (P16070 21-742): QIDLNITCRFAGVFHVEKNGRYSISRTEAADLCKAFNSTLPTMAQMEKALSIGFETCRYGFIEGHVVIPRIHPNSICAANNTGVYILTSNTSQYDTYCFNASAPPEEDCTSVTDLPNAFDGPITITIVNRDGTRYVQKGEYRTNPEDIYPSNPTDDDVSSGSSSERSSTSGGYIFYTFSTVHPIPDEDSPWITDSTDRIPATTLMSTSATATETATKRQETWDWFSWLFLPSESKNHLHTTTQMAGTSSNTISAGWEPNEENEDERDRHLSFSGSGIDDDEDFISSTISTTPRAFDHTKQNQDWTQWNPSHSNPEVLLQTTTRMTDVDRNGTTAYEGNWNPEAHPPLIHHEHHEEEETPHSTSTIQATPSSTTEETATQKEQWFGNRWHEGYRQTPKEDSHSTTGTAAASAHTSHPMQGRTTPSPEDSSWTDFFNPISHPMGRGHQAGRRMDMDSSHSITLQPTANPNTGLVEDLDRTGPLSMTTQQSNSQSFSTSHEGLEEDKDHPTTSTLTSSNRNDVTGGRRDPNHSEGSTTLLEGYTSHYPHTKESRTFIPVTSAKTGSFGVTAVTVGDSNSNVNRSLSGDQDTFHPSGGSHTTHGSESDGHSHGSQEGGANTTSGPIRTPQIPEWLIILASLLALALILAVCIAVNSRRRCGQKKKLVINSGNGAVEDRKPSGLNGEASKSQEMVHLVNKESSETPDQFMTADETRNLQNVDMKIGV
T3 sequence (P51654 25-554 limits assumed): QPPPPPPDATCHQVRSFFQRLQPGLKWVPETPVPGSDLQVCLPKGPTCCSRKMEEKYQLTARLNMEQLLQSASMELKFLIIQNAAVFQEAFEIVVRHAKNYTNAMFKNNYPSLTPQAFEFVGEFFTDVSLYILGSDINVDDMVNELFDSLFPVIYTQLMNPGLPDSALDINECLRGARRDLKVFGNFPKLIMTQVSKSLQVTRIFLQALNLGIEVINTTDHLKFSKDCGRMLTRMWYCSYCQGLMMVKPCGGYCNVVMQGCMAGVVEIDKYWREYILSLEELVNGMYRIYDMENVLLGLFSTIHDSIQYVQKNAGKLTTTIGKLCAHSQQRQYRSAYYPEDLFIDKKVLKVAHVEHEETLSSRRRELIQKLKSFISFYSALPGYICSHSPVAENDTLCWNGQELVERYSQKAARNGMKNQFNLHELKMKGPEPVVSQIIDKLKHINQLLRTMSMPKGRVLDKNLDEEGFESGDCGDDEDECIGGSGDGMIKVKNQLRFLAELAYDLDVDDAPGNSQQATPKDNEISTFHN

The molecule `CC(C)C[C@H](NC(=O)[C@H](Cc1ccc(O)cc1)NC(=O)[C@H](CO)NC(=O)[C@H](Cc1c[nH]c2ccccc12)NC(=O)CNC(=O)[C@H](CCCCN)NC(=O)[C@@H](N)Cc1c[nH]c2ccccc12)C(=O)N[C@@H](Cc1c[nH]c2ccccc12)C(=O)N[C@H](C(=O)N[C@@H](CCC(N)=O)C(=O)N[C@@H](CCC(N)=O)C(=O)N[C@@H](C)C(=O)NCC(=O)NCC(=O)NCC(=O)N[C@@H](CO)C(=O)N[C@@H](CCCCNC(=O)CCCCCN1C(=CC=C2CCCC(C=CC3=[N+](CCCCS(=O)(=O)[O-])c4ccc(S(=O)(=O)O)cc4C3(C)C)=C2Oc2ccc(S(=O)(=O)O)cc2)C(C)(C)c2cc(S(=O)(=O)O)ccc21)C(N)=O)[C@@H](C)O` [WKG*-IRDye800] (H-WKGWSYLWTQQAGGGSK(IRDye800CW)-NH2) had a half-life in series [1] of 5.1 h. The Kd in series [2] amounted to 43 nM. Besides, the “binding to the surface of SK-Hep1 cells” value in series [3] was “bind intensely”. For the same molecule, in series [3] (merged image), the “Pearson's correlation coefficient, peptide and anti-CD44-AF488” value is given as 0.81.

Regarding “HPD*-IRDye800: lead EpCAM peptide HPDMFTRTHSHN (SEQ ID NO: 7) labeled with IRDye800 (also: IRDye800 label, site not given here)”, the “NIR fluorescence intensity versus control PFH*-IRDye800” value in series [4] was “significantly greater”.

On to `O=C([O-])CN1CCN(CC(=O)[O-])CCN(CC(=O)O)CCN(CC(=O)[O-])CC1.[Gd+3]` [free Gd-DOTA, Gd-DOTA], for which, in [5], the T/B ratio worked out at 0.99±0.04.

On to HPDMFTRTHSHN (also: Cy5.5 label, site and linker not given here) [HPD*-Cy5.5 (Cy5.5-labeled EpCAM peptide monomer, HPDMFTRTHSHN)], for which the binding result in series [6] was “binds”.

B1: WKG*-IRDye800 (IRDye800-labeled WKG* peptide monomer, WKGWSYLWTQQA) (peptide)
peptide: WKGWSYLWTQQA
modifications: also: IRDye800 label, site not given here
notes: also called IRDye800-labeled WKD* monomer peptide
For the molecule B1, the Kd in series [7] was 43 nM.

B2: Cy5.5-labeled peptide multimer (ALL*, WKG* and HPD* on a tri-lysine linker) (designed binder)
peptide 1: ALLANHEELFQT
peptide 2: WKGWSYLWTQQA
peptide 3: HPDMFTRTHSHN
modifications: also: each peptide joined through PEG3 extension to a tri-lysine linker, Cy5.5 label, site not given here
notes: also called Cy5.5-labeled multimer; not shown: The branched tri-lysine linker with PEG3 extensions and the Cy5.5 label
Turning to B2, in [8], the “fold increase of fluorescence intensity versus the CD44 monomer WKG*-Cy5.5” value came out at 1.84 fold. For the same molecule, the “fold increase of fluorescence intensity versus the GPC3 monomer ALL*-Cy5.5” value in [9] was found to be 5.48 fold. For the same molecule, in series [10], the “fold increase of fluorescence intensity versus the EpCAM monomer HPD*-Cy5.5” value was determined as 2 fold.

One may read the half-life as the time needed for the level to fall by half in the phase considered.
